Laboratory results taken from US7608392B2, “Diagnostic assay for measuring a cell mediated immune response” (priority 2002, dated 2009).
“And” between values parts separate entries of the source, which are not always exact repeats. Identical values can stand only once.

Tests used:
Type in all cases: cell-based, human
whole blood [1] = test: Whole blood IFN-γ response to HuPPD or Mitogen, 24-well plate versus blood collection tube, Quantiferon-TB ELISA (Example 4)
whole blood [2] = test: Whole blood IFN-γ response to antigen with or without dextrose, 24-well plate, Quantiferon-TB ELISA (Example 2)
whole blood [3] = conditions: blood collection tube, dextrose added; one line per subject; * OD outside the range of the plate reader
whole blood [4] = tested on: whole blood

phytohemagglutinin [Mitogen]
Amount of IFN-γ detected, Mitogen 24-well (whole blood [1]; after subtraction of saline negative control, 24-well plate, one line per donor): 83.34 IU/mL and 1.13 IU/mL and 10.04 IU/mL and 6.85 IU/mL and 12.32 IU/mL and 8.77 IU/mL and 76.98 IU/mL and 65.02 IU/mL and 8.14 IU/mL and −0.56 IU/mL and 21.79 IU/mL and 30.58 IU/mL and 28.26 IU/mL and 8.10 IU/mL and 2.75 IU/mL and 6.14 IU/mL and 14.05 IU/mL and 2.46 IU/mL and 11.80 IU/mL and 7.69 IU/mL | Amount of IFN-γ detected, Mitogen Tube (whole blood [1]; after subtraction of saline negative control, blood collection tube, mean of duplicate tubes, one line per donor): 61.94 IU/mL and 13.13 IU/mL and 7.95 IU/mL and 3.45 IU/mL and 13.32 IU/mL and 5.29 IU/mL and 68.58 IU/mL and 47.53 IU/mL and 5.80 IU/mL and −0.79 IU/mL and 16.34 IU/mL and 22.52 IU/mL and 19.16 IU/mL and 5.71 IU/mL and 1.88 IU/mL and 3.55 IU/mL and 9.07 IU/mL and 7.91 IU/mL and 8.73 IU/mL and 3.52 IU/mL | Mean fold increase, Mitogen Tube/24-well (whole blood [1]; mean over donors): 0.73 | Mitogen Tube/24-well (whole blood [1]; ratio of IFN-γ, one line per donor): 0.74 (3×) and 0.79 and 0.05 and 1.08 and 0.60 and 0.89 and 0.73 and 0.71 (2×) and 0.75 and 0.68 and 0.58 and 0.65 and 3.22 and 0.46 | Concentration of IFN-γ found for each plasma sample, +Dextrose (whole blood [2]; 24-well plate, 20 hours 37° C., dextrose 2 mg/mL, one line per donor): 122.76 IU/mL and 25.71 IU/mL | Concentration of IFN-γ found for each plasma sample, −Dextrose (whole blood [2]; 24-well plate, 20 hours 37° C., without dextrose, one line per donor): 108.72 IU/mL and 28.67 IU/mL | Fold increase with dextrose (whole blood [2]; IFN-γ +Dextrose 2 mg/mL / −Dextrose, one line per donor): 0.90 and 1.13 | Change in IFN-γ detected with addition of dextrose (in words) (whole blood [2]; dextrose 2 mg/mL, 24-well plate): slight increase in IFN-γ detected for one of the donors and a slight decrease for the other | IFN-γ, In-Tube Method, Mitogen (whole blood [3]): 52.50 IU/mL and 4.15 IU/mL and 17.377* IU/mL and 5.57 IU/mL and 2.31 IU/mL and 11.77 IU/mL and 21.063* IU/mL and 4.02 IU/mL and 11.23 IU/mL and 17.05* IU/mL

tetanus toxoid
Mean fold increase, TetTox Tube/24 well (whole blood [4]): 4.5 and 4.51
